Source: patent US12545639B2, “3-substituted phenylamidine compounds, preparation and use thereof” (PI INDUSTRIES LTD., priority 2019, dated 2026)

How the values were obtained:
Pyricularia oryzae = assay: microbe, parasite or virus in culture; format: cell-based; details: 168 h, read-out: control compared to the untreated check (radial growth)
Rhizoctonia solani = Rhizoctonia solani (rice sheath blight/potato black scurf) in vitro test, radial growth on potato dextrose agar; format: cell-based; details: 168 h, 300 ppm in potato dextrose agar, 25° C., 60% relative humidity, seven days, read-out: control compared to the untreated check (radial growth)
Botrytis cinerea = Botrytis cinerea (gray mold) in vitro test, radial growth on potato dextrose agar; format: cell-based; details: 168 h, 300 ppm in potato dextrose agar, 22° C., 90% relative humidity, seven days, read-out: control compared to the untreated check (radial growth)
Alternaria solani = Alternaria solani (early blight of tomato/potato) in vitro test, radial growth on potato dextrose agar; format: cell-based; details: 168 h, 300 ppm in potato dextrose agar, 25° C., 60% relative humidity, seven days, read-out: control compared to the untreated check (radial growth)
Fusarium culmorum = Fusarium culmorum (foot rot of cereals) in vitro test, radial growth on potato dextrose agar; format: cell-based; details: 168 h, 300 ppm in potato dextrose agar, 25° C., 60% relative humidity, seven days, read-out: control compared to the untreated check (radial growth)
Method: Compounds were dissolved in 0.3% dimethyl sulfoxide and then added to potato dextrose agar medium just prior to dispensing it into petri dishes. 5 mL medium with the compound in the desired concentration was dispensed into 60 mm sterile petri-plates. After solidification each plate was seeded with a 5 mm size mycelial disc taken from the periphery of an actively growing virulent culture plate. Plates were incubated in growth chambers at 25° C. temperature and 60% relative humidity for seven days and then the radial growth was measured and compared to that of the untreated control.

Phakopsora pachyrhizi = Phakopsora pachyrhizi test in soybean, preventive, in vivo on plants; details: in Glycine max, read-out: Efficacy (% control), disease severity compared to the untreated check
[1] = test system: Septoria lycopersici/Corynespora cassicola (CORYCA); assay: Septoria lycopersici/Corynespora cassicola (CORYCA) (leaf spot of tomato) in vitro test, radial growth on potato dextrose agar; format: cell-based; details: 168 h, 300 ppm in potato dextrose agar, 25° C., 70% relative humidity, seven days, read-out: control compared to the untreated check (radial growth)
Colletotrichum capsici = Colletotrichum capsici (anthracnose) in vitro test, radial growth on potato dextrose agar; format: cell-based; details: Colletotrichum truncatum, 168 h; 300 ppm in potato dextrose agar; 25° C., 60% relative humidity, seven days; read-out: control compared to the untreated check (radial growth)

CCN(C)C=Nc1cc(Cl)cc(Cc2cc(C)c(F)c(C)c2)c1C [Compound 87, N′-(5-chloro-3-(4-fluoro-3,5-dimethylbenzyl)-2-methylphenyl)-N-ethyl-N-methylformimidamide]
≥ 70%: inhibition of growth at 300 ppm (Pyricularia oryzae) | inhibition of growth at 300 ppm (Rhizoctonia solani) | inhibition of growth at 300 ppm (Botrytis cinerea) | inhibition of growth at 300 ppm (Alternaria solani) | inhibition of growth at 300 ppm (Fusarium culmorum) | pest or weed control at 500 ppm (Phakopsora pachyrhizi)

CCN(C)C=Nc1cc(OC)cc(Cc2cc(C)cc(F)c2)c1C [Compound 292, N-ethyl-N′-(3-(3-fluoro-5-methylbenzyl)-5-methoxy-2-methylphenyl)-N-methylformimidamide]
≥ 70%: inhibition of growth at 300 ppm (Pyricularia oryzae) | inhibition of growth at 300 ppm (Rhizoctonia solani) | inhibition of growth at 300 ppm (Botrytis cinerea) | inhibition of growth at 300 ppm (Alternaria solani) | inhibition of growth at 300 ppm [1] | inhibition of growth at 300 ppm (Fusarium culmorum)

CCN(C)C=Nc1cc(OC)cc(Cc2ccccc2OC(F)(F)F)c1C [Compound 299, N-ethyl-N′-(5-methoxy-2-methyl-3-(2-(trifluoromethoxy)benzyl)phenyl)-N-methylformimidamide]
≥ 70%: inhibition of growth at 300 ppm (Pyricularia oryzae) | inhibition of growth at 300 ppm (Rhizoctonia solani) | inhibition of growth at 300 ppm (Botrytis cinerea) | inhibition of growth at 300 ppm (Alternaria solani) | inhibition of growth at 300 ppm [1] | inhibition of growth at 300 ppm (Fusarium culmorum) | pest or weed control at 500 ppm (Phakopsora pachyrhizi)

CCN(C)C=Nc1cc(F)cc(Cc2ccc(C(F)(F)F)cc2)c1C [Compound 188, N-ethyl-N′-(5-fluoro-2-methyl-3-(4-(trifluoromethyl)benzyl)phenyl)-N-methylformimidamide]
≥ 70%: inhibition of growth at 300 ppm (Pyricularia oryzae) | inhibition of growth at 300 ppm (Rhizoctonia solani) | inhibition of growth at 300 ppm (Botrytis cinerea) | inhibition of growth at 300 ppm (Alternaria solani) | inhibition of growth at 300 ppm [1] | inhibition of growth at 300 ppm (Fusarium culmorum) | pest or weed control at 500 ppm (Phakopsora pachyrhizi)

CCN(C)C=Nc1cc(OC)cc(Cc2ccccc2Cl)c1C [Compound 265, N′-(3-(2-chlorobenzyl)-5-methoxy-2-methylphenyl)-N-ethyl-N-methylformimidamide]
≥ 70%: inhibition of growth at 300 ppm (Pyricularia oryzae) | inhibition of growth at 300 ppm (Rhizoctonia solani) | inhibition of growth at 300 ppm (Botrytis cinerea) | inhibition of growth at 300 ppm (Alternaria solani) | inhibition of growth at 300 ppm [1] | inhibition of growth at 300 ppm (Fusarium culmorum)

CCN(C)C=Nc1cc(F)cc(Cc2ccccc2Cl)c1C [Compound 142, N′-(3-(2-chlorobenzyl)-5-fluoro-2-methylphenyl)-N-ethyl-N-methylformimidamide]
≥ 70%: inhibition of growth at 300 ppm (Pyricularia oryzae) | inhibition of growth at 300 ppm (Rhizoctonia solani) | inhibition of growth at 300 ppm (Botrytis cinerea) | inhibition of growth at 300 ppm (Alternaria solani) | inhibition of growth at 300 ppm [1] | inhibition of growth at 300 ppm (Fusarium culmorum)

CCN(C)C=Nc1cc(OC)cc(Cc2ccccc2C(F)(F)F)c1C [Compound 307, N-ethyl-N′-(5-methoxy-2-methyl-3-(2-(trifluoromethyl)benzyl)phenyl)-N-methylformimidamide]
≥ 70%: inhibition of growth at 300 ppm (Pyricularia oryzae) | inhibition of growth at 300 ppm (Rhizoctonia solani) | inhibition of growth at 300 ppm (Botrytis cinerea) | inhibition of growth at 300 ppm (Alternaria solani) | inhibition of growth at 300 ppm [1] | inhibition of growth at 300 ppm (Fusarium culmorum)

CCN(C)C=Nc1cc(Cl)cc(Nc2cccc(Br)c2)c1C [Compound 164, N′-(3-((3-bromophenyl)amino)-5-chloro-2-methylphenyl)-N-ethyl-N-methylformimidamide]
≥ 70%: inhibition of growth at 300 ppm (Pyricularia oryzae) | inhibition of growth at 300 ppm (Rhizoctonia solani) | inhibition of growth at 300 ppm (Botrytis cinerea) | inhibition of growth at 300 ppm (Alternaria solani) | inhibition of growth at 300 ppm [1] | inhibition of growth at 300 ppm (Fusarium culmorum)

CCN(C)C=Nc1cc(Cl)cc(N(C)c2ncccn2)c1C [Compound 214, N′-(5-chloro-2-methyl-3-(methyl(pyrimidin-2-yl)amino)phenyl)-N-ethyl-N-methylformimidamide]
≥ 70%: inhibition of growth at 300 ppm (Pyricularia oryzae) | inhibition of growth at 300 ppm (Rhizoctonia solani) | inhibition of growth at 300 ppm (Alternaria solani) | inhibition of growth at 300 ppm [1] | inhibition of growth at 300 ppm (Fusarium culmorum) | pest or weed control at 500 ppm (Phakopsora pachyrhizi)

CCN(C)C=Nc1cc(OC)cc(Cc2cccc(OC(F)(F)F)c2)c1C [Compound 305, N-ethyl-N′-(5-methoxy-2-methyl-3-(3-(trifluoromethoxy)benzyl)phenyl)-N-methylformimidamide]
≥ 70%: inhibition of growth at 300 ppm (Pyricularia oryzae) | inhibition of growth at 300 ppm (Rhizoctonia solani) | inhibition of growth at 300 ppm (Botrytis cinerea) | inhibition of growth at 300 ppm (Alternaria solani) | inhibition of growth at 300 ppm [1] | inhibition of growth at 300 ppm (Fusarium culmorum)

CCN(C)C=Nc1cc(OC)cc(Cc2cc(F)ccc2Cl)c1C [Compound 293, N′-(3-(2-chloro-5-fluorobenzyl)-5-methoxy-2-methylphenyl)-N-ethyl-N-methylformimidamide]
≥ 70%: inhibition of growth at 300 ppm (Pyricularia oryzae) | inhibition of growth at 300 ppm (Rhizoctonia solani) | inhibition of growth at 300 ppm (Botrytis cinerea) | inhibition of growth at 300 ppm (Alternaria solani) | inhibition of growth at 300 ppm [1] | inhibition of growth at 300 ppm (Fusarium culmorum)

CCN(C)C=Nc1cc(OC)cc(Cc2ccccc2F)c1C [Compound 266, N-ethyl-N′-(3-(2-fluorobenzyl)-5-methoxy-2-methylphenyl)-N-methylformimidamide]
≥ 70%: inhibition of growth at 300 ppm (Pyricularia oryzae) | inhibition of growth at 300 ppm (Rhizoctonia solani) | inhibition of growth at 300 ppm (Alternaria solani) | inhibition of growth at 300 ppm [1] | inhibition of growth at 300 ppm (Fusarium culmorum) | pest or weed control at 500 ppm (Phakopsora pachyrhizi)

CCN(C)C=Nc1cc(F)cc(Cc2ccccc2C(F)(F)F)c1C [Compound 143, N-ethyl-N′-(5-fluoro-2-methyl-3-(2-(trifluoromethyl)benzyl)phenyl)-N-methylformimidamide]
≥ 70%: inhibition of growth at 300 ppm (Pyricularia oryzae) | inhibition of growth at 300 ppm (Rhizoctonia solani) | inhibition of growth at 300 ppm (Botrytis cinerea) | inhibition of growth at 300 ppm (Alternaria solani) | inhibition of growth at 300 ppm (Colletotrichum capsici) | inhibition of growth at 300 ppm [1] | pest or weed control at 500 ppm (Phakopsora pachyrhizi)

CCN(C)C=Nc1cc(C)cc(Nc2c(C)cccc2F)c1Cl [Compound 133, N′-(2-chloro-3-((2-fluoro-6-methylphenyl)amino)-5-methylphenyl)-N-ethyl-N-methylformimidamide]
≥ 70%: inhibition of growth at 300 ppm (Pyricularia oryzae) | inhibition of growth at 300 ppm (Rhizoctonia solani) | inhibition of growth at 300 ppm (Botrytis cinerea) | inhibition of growth at 300 ppm (Alternaria solani) | inhibition of growth at 300 ppm (Colletotrichum capsici) | inhibition of growth at 300 ppm [1] | pest or weed control at 500 ppm (Phakopsora pachyrhizi)

CCN(C)C=Nc1cc(OC)cc(N(C)c2ccc(OC)c(F)c2)c1C [Compound 271, N-ethyl-N′-(3-((3-fluoro-4-methoxyphenyl)(methyl)amino)-5-methoxy-2-methylphenyl)-N-methylformimidamide]
≥ 70%: inhibition of growth at 300 ppm (Pyricularia oryzae) | inhibition of growth at 300 ppm (Alternaria solani) | inhibition of growth at 300 ppm [1] | inhibition of growth at 300 ppm (Fusarium culmorum)

CCN(C)C=Nc1cc(F)cc(Cc2ccc(F)c(C)c2)c1C [Compound 203, N-ethyl-N′-(5-fluoro-3-(4-fluoro-3-methylbenzyl)-2-methylphenyl)-N-methylformimidamide]
≥ 70%: inhibition of growth at 300 ppm (Pyricularia oryzae) | inhibition of growth at 300 ppm (Rhizoctonia solani) | inhibition of growth at 300 ppm (Botrytis cinerea) | inhibition of growth at 300 ppm (Alternaria solani) | inhibition of growth at 300 ppm (Colletotrichum capsici) | inhibition of growth at 300 ppm [1] | pest or weed control at 500 ppm (Phakopsora pachyrhizi)

CCN(C)C=Nc1cc(F)cc(Nc2ccc(SC(F)(F)F)cc2)c1C [Compound 16, N-ethyl-N′-(5-fluoro-2-methyl-3-((4-((trifluoromethyl)thio)phenyl)amino)phenyl)-N-methylformimidamide]
≥ 70%: inhibition of growth at 300 ppm (Pyricularia oryzae) | inhibition of growth at 300 ppm (Rhizoctonia solani) | inhibition of growth at 300 ppm (Botrytis cinerea) | inhibition of growth at 300 ppm (Alternaria solani) | inhibition of growth at 300 ppm (Colletotrichum capsici) | inhibition of growth at 300 ppm [1] | pest or weed control at 500 ppm (Phakopsora pachyrhizi)
